Drawing on a melting point compilation (Tetko et al.; mined from patent text by program, amines drawn as free bases though some values may be those of a salt), this text covers melting point for 33 compounds.

Take `O=C(NCc1ccc(Cl)cc1)c1cnc2c(C(F)(F)F)cc(CCCO)cc2c1O`: the melting point (usually the temperature, or range, at which the solid turns liquid) was 249 to 250 °C. The result for `CC(C)(C)C(=O)Nc1ccc(Cl)cc1C1(O)CCN(C/C=C/c2ccc(Cl)cc2)CC1` reads 177 to 179 °C. The result for `Nc1ncnc2ncn([C@H]3C=C[C@@H](O)C3)c12` (racemic) reads 195 to 197 °C; that for `CCOC(=O)c1cccc(N)c1NCc1ccc(-c2ccccc2C#N)cc1`, 104 to 105 °C. With `C/C(=C(\C#N)C(=S)/N=C/N(C)C)N1CCCN(c2ccc3c(c2)OCCO3)CC1`, the melting point was in the range of 127 to 129 °C. The result for `COc1ccc(Br)cc1C(=O)C(Br)C(Br)c1ccc(Br)cc1` (stereo not drawn) reads 158 to 159 °C; that for `N#Cc1ccc(NC2=C(Cl)C(=O)c3ccccc3C2=O)cc1`, 188 to 189 °C; that for `CCCN(CCC)CCc1ccc(O)c(N)c1`, 127 to 151 °C. For the compound `O=C(O)CC1CCc2c(n(Cc3ccccc3)c3ccccc23)S1` (stereo not drawn), the melting point lay within 164 to 167 °C. To `COC(=O)C1=C(C)Nc2c(c(-c3ccccc3)nn2C)C1c1ccc(F)cc1` (stereo not drawn) belongs 181 to 183 °C; to `COc1cc(Oc2ccc(S(C)(=O)=O)cc2)cc2cc(C3=NCC(CC(N)=O)S3)[nH]c12` (stereo not drawn), 169 to 170 °C; to `CC(C)OC(=O)C1=C(O)c2ccccc2S(=O)(=O)N1C`, 102 to 103 °C.

`OCc1csc(Nc2ccc(Br)cn2)n1` had a melting point of 207 to 209 °C. To `COC(=O)C1(O)CC(OC(C)=O)C(NC(=O)Cc2cc(=O)oc3cc(OC(C)=O)ccc23)C(C(OC(C)=O)C(COC(C)=O)OC(C)=O)O1` (stereo not drawn) belongs 105 °C; to `C[C@]1(CN2CCN(C(=O)NC3CCCCC3)CC2)Cn2cc([N+](=O)[O-])nc2O1`, 98 to 101 °C.

In turn, `O=C(O)C(CC1CC2CCN1CC2)(c1ccccc1)c1ccccc1` (stereo not drawn) returned a melting point of 180 to 185 °C. To `CC(C)(C)NC(=O)c1ccc(-c2cccc3cncn23)cc1` belongs 128 to 131 °C; to `OCCCCCCCCOc1ccc(-c2ccccc2)cc1`, 101 to 103 °C; to `COC(=O)CCC(=O)OC(=C1C(=O)N(C(N)=O)c2cc(Cl)c(F)cc21)c1cccs1`, 179 to 183 °C. To `CCOC(=O)c1cccc(NC(=O)C(CSC(C)=O)Cc2ccccc2)c1` (stereo not drawn) belongs 89 to 92 °C; to `Nc1c(SC(F)(F)F)ncn1-c1c(Cl)cc(C(F)(F)F)cc1Cl`, 134 °C. The result for `Cc1ccc(CC2CNC(=O)O2)cc1` (stereo not drawn) reads 144 to 146 °C; that for `COC(CCN(C(=O)OC(C)(C)C)c1cc(OCc2ccccc2)c2ncccc2c1I)OC`, 120 to 121 °C. In turn, `Cc1cccc2c1nc(COc1ccc(Cl)cc1)n2CCC(C)CN1CCCC1` (racemic) had a melting point of 85 to 87 °C. The result for `COCCC(=O)N[C@H]1CC[C@H](CCN2CCN(c3ncc(C)c4c3CCO4)CC2)CC1` reads 164 °C; that for `CCCCCCCCCCCCCCCCCCCCCCNc1cc(N)c([N+](=O)[O-])cc1[N+](=O)[O-]`, 108 to 110 °C.

In turn, `NS(=O)(=O)c1ccc(NC(=O)c2ccc(F)cc2SSc2cc(F)ccc2C(=O)Nc2ccc(S(N)(=O)=O)cc2)cc1` gave a melting point of 309 to 310 °C. To `CC1CCC(C(=O)N(C)C)=C2NC=C(C(N)=O)C(=O)N21` (stereo not drawn) belongs 220 °C; to `COC(=O)c1ccc(C2(C(=O)Oc3ccc(C(=O)NO)cc3)CCCCC2)cc1`, 129 to 131 °C; to `O=[N+]([O-])c1c(-c2ccc(Cl)cc2)[nH]c(SC(F)(F)F)c1Br`, 160 to 165 °C. Compound `Cc1ccc2c(c1)C=Cc1cc(C(C)C)ccc1C2c1cn(Cc2ccc(C(=O)O)o2)c(=O)[nH]c1=O` (stereo not drawn) displayed a melting point of 150 to 160 °C.

`COc1cc2nc(N3CCN(c4ccnc(Cl)n4)CC3)cc(N)c2cc1OC` gave a melting point of 266 °C.

`O=C1CN(c2ccc(C(Br)C(Br)c3ccccc3)cc2OCc2ccccc2)S(=O)(=O)N1` (stereo not drawn) had a melting point of 173 to 175 °C.
